These results are taken from publication PMC3293801, “Differential Contribution of the Repeats to Heparin Binding of HBHA, a Major Adhesin of Mycobacterium tuberculosis” (PLoS ONE, 2012).

In the assay the target is T1, MalE-Ct (Mycobacterium tuberculosis, UniProt P9WIP9).
T1 construct: gene hbhA; pMAL+3R1+2R2, E. coli B834; 15N-labelled; MBP kept
In kind it is binding. The following applies: 20 mM phosphate pH 6.8, 0.15 M NaCl, 20°C, 900 MHz, 60 µM protein; apparent, single site.

T1 sequence (P9WIP9 161-199): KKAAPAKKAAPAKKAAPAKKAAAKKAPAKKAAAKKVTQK

With dp10 heparin-derived oligosaccharide, the Kd was 79.4 ± 23 µM. dp14 heparin-derived oligosaccharide: the Kd is 58.8 ± 14 µM.
